Measured values published in the supplement of paper PMC10307832.

Legend:
Experiment in all cases: relative viability (nuclei count vs DMSO), 5 days (fraction); higher = more cells survive
EHT 1864 + Crizotinib = compound: C1COCCN1CC2=CC(=O)C(=CO2)OCCCCCSC3=C4C=CC(=CC4=NC=C3)C(F)(F)F [EHT 1864] + C[C@@H](Oc1cc(-c2cnn(C3CCNCC3)c2)cnc1N)c1c(Cl)ccc(F)c1Cl [Crizotinib] (partner 1 µM)
How it was run: (§1)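 Lung cancer cell lines, seeded in 1536-well plates, were treated the following day by pin tool with a single drug or with five library-drug doses (not always all listed) in √10 steps on top of a fixed anchor-drug dose. Cells were fixed and nuclei stained in one step after 5 days, and nuclei were counted. Relative viability is the nuclei count for treated wells divided by that for vehicle wells, reported as medians of duplicate plates.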

EHT 1864 + Dasatinib = compound: C1COCCN1CC2=CC(=O)C(=CO2)OCCCCCSC3=C4C=CC(=CC4=NC=C3)C(F)(F)F [EHT 1864] + Cc1nc(Nc2ncc(C(=O)Nc3c(C)cccc3Cl)s2)cc(N2CCN(CCO)CC2)n1 [Dasatinib] (partner 0.075 µM)
How it was run: as §1

EHT 1864 + Pictilisib = compound: C1COCCN1CC2=CC(=O)C(=CO2)OCCCCCSC3=C4C=CC(=CC4=NC=C3)C(F)(F)F [EHT 1864] + CS(=O)(=O)N1CCN(Cc2cc3nc(-c4cccc5[nH]ncc45)nc(N4CCOCC4)c3s2)CC1 [Pictilisib] (partner 1 µM)
How it was run: as §1

EHT 1864 + Vorinostat = compound: C1COCCN1CC2=CC(=O)C(=CO2)OCCCCCSC3=C4C=CC(=CC4=NC=C3)C(F)(F)F [EHT 1864] + O=C(CCCCCCC(=O)Nc1ccccc1)NO [Vorinostat] (partner 1 µM)
How it was run: as §1

Cell Line	relative viability (EHT 1864 + Crizotinib; first compound 0.04 µM)	relative viability (EHT 1864 + Crizotinib; first compound 0.1265 µM)	relative viability (EHT 1864 + Crizotinib; first compound 0.4 µM)	relative viability (EHT 1864 + Crizotinib; first compound 1.265 µM)	relative viability (EHT 1864 + Crizotinib; first compound 4 µM)	relative viability (EHT 1864 + Dasatinib; first compound 0.04 µM)	relative viability (EHT 1864 + Dasatinib; first compound 0.1265 µM)	relative viability (EHT 1864 + Dasatinib; first compound 0.4 µM)	relative viability (EHT 1864 + Dasatinib; first compound 1.265 µM)	relative viability (EHT 1864 + Dasatinib; first compound 4 µM)	relative viability (EHT 1864 + Pictilisib; first compound 0.04 µM)	relative viability (EHT 1864 + Pictilisib; first compound 0.1265 µM)	relative viability (EHT 1864 + Pictilisib; first compound 0.4 µM)	relative viability (EHT 1864 + Pictilisib; first compound 1.265 µM)	relative viability (EHT 1864 + Pictilisib; first compound 4 µM)	relative viability (EHT 1864 + Vorinostat; first compound 0.04 µM)	relative viability (EHT 1864 + Vorinostat; first compound 0.1265 µM)	relative viability (EHT 1864 + Vorinostat; first compound 0.4 µM)	relative viability (EHT 1864 + Vorinostat; first compound 1.265 µM)	relative viability (EHT 1864 + Vorinostat; first compound 4 µM)
201T	1.05	1.03	1	0.984	1	0.563	0.587	0.589	0.473	0.528	0.703	0.676	0.7	0.647	0.607	0.901	0.876	1.01	0.923	0.811
A549	0.659	0.739	0.742	0.669	0.601							0.524	0.416	0.411	0.461					
A-427	0.949	0.945	0.817	0.8	0.811	0.643	0.655	0.613	0.705	0.623	0.695	0.749	0.688	0.658	0.607	0.928	0.819	0.885	0.879	0.801
ABC-1	1.35	1.03	0.991	0.733	0.759	0.504		0.631	0.488	0.439	0.935	0.713	0.814	0.824	0.73	1.22	0.978	0.928	1.07	1.12
BEN	0.979	0.775	0.753	0.885	0.964	0.384	0.279	0.377	0.308	0.36	0.523	0.532	0.589	0.576	0.61	0.528	0.579	0.636	0.648	0.57
CAL-12T	0.722	0.635	0.663	0.653	0.831	0.54	0.38	0.409	0.353	0.483	0.596	0.542	0.446	0.457	0.574	0.671	0.553	0.644	0.775	0.812
COR-L23	0.684	0.559	0.59	0.552	0.596	0.492	0.396	0.467	0.485	0.439	0.716	0.523	0.78	0.692	0.822	0.476	0.333	0.476	0.435	0.433
COR-L 105	0.614	0.732	1.05	0.774	0.74	0.415	0.314	0.34	0.334	0.396	0.424	0.461	0.462	0.414	0.378	0.99	0.699	0.949	0.847	0.778
Calu-6	0.763	0.767	0.676	0.748	0.733						0.899	0.866	0.862	0.902	0.83					
ChaGo-K-1	1.14	1.15	1.12		1.01	0.587	0.551	0.619	0.602	0.616	0.816	0.664	0.736		0.806	0.785	0.76	0.72	0.811	0.76
EKVX	1.05	0.721	0.857	0.947	0.855	0.631	0.436	0.536	0.51	0.58	0.396	0.428	0.496	0.485	0.437	0.749	0.524	0.69	0.743	0.631
EMC-BAC-2	0.752	0.616	0.72	0.749	0.817	0.359	0.342	0.338	0.276	0.325	0.525	0.551	0.548	0.517	0.517	0.45	0.383	0.503	0.427	0.504
EPLC-272H	0.928	0.861	0.855	0.915	1.01	0.359	0.327	0.395	0.452	0.275	0.307	0.275	0.446	0.166	0.278	0.454	0.565	0.567	0.662	0.33
H3255	0.683	0.65	0.938	0.817	1	0.437	0.391	0.346	0.344	0.343	0.405	0.421	0.512	0.479	0.518	0.752	0.717		0.851	0.794
HARA	0.964	1	1.08	1.04	0.902	0.236	0.246	0.207	0.19	0.255	0.393	0.359	0.531	0.321	0.446	0.514	0.366	0.715	0.582	0.229
HCC-15	0.752	0.635	0.801	0.82	0.821	0.56		0.623	0.618	0.543	0.737	0.577	0.793	0.656	0.731	0.77		0.838	0.81	0.929
HCC-44	0.799	0.751	0.693	0.653	0.858						0.412	0.37	0.604	0.573	0.694	1.08	0.984	1.06	1.08	1.13
HCC-78	0.349	0.32	0.353	0.342	0.319	0.365	0.367	0.357	0.338	0.337	0.262	0.209	0.242	0.205	0.25	0.377	0.429	0.421	0.429	0.467
HCC-366	0.434		0.423	0.554	0.487	0.609	0.602	0.638	0.596	0.771	0.137	0.146	0.128	0.149	0.138	0.336	0.0895	0.312	0.327	0.337

Cell Line	relative viability (EHT 1864 + Crizotinib; first compound 0.04 µM)	relative viability (EHT 1864 + Crizotinib; first compound 0.1265 µM)	relative viability (EHT 1864 + Crizotinib; first compound 0.4 µM)	relative viability (EHT 1864 + Crizotinib; first compound 1.265 µM)	relative viability (EHT 1864 + Crizotinib; first compound 4 µM)	relative viability (EHT 1864 + Dasatinib; first compound 0.04 µM)	relative viability (EHT 1864 + Dasatinib; first compound 0.1265 µM)	relative viability (EHT 1864 + Dasatinib; first compound 0.4 µM)	relative viability (EHT 1864 + Dasatinib; first compound 1.265 µM)	relative viability (EHT 1864 + Dasatinib; first compound 4 µM)	relative viability (EHT 1864 + Pictilisib; first compound 0.04 µM)	relative viability (EHT 1864 + Pictilisib; first compound 0.1265 µM)	relative viability (EHT 1864 + Pictilisib; first compound 0.4 µM)	relative viability (EHT 1864 + Pictilisib; first compound 1.265 µM)	relative viability (EHT 1864 + Pictilisib; first compound 4 µM)	relative viability (EHT 1864 + Vorinostat; first compound 0.04 µM)	relative viability (EHT 1864 + Vorinostat; first compound 0.1265 µM)	relative viability (EHT 1864 + Vorinostat; first compound 0.4 µM)	relative viability (EHT 1864 + Vorinostat; first compound 1.265 µM)	relative viability (EHT 1864 + Vorinostat; first compound 4 µM)
HCC-827	0.963	0.759	0.931	0.844	0.921	0.358	0.328	0.268	0.248	0.269	1.15	1.11	1	0.875	1.12	0.932	0.59	0.843	0.96	0.602
HOP-62	0.944		0.952	0.784	0.996	0.561		0.74	0.589	0.84	0.788		0.612	0.804	1.09	0.631		0.616	0.676	0.667
IA-LM	1.01		0.754		0.684						0.421		0.38	0.387	0.384	0.917		0.853	0.946	1.24
LC-2-ad	0.493	0.454	0.432	0.526	0.564	0.65		0.617	0.54	0.659	0.335		0.491	0.503	0.508	0.659	0.432	0.677	0.648	0.625
LCLC-97TM1	0.399		0.42	0.442	0.285	0.888	0.748	0.828	0.727	0.8	0.222		0.161	0.224	0.227	0.848	0.509	0.813	0.613	0.74
LCLC-103H	1.15	1.03	1.02	1.05	1.01	0.409	0.399	0.373	0.431	0.505	0.656	0.482	0.667	0.661	0.547	0.758	0.666	0.791	0.779	0.712
LK-2	0.232	0.23	0.225	0.241	0.221	0.36		0.353	0.246	0.257	0.614	0.487	0.591	0.479	0.661	0.312	0.265	0.206	0.253	0.284
LOU-NH91	0.764	0.73	0.741	0.733	0.758	0.543	0.5	0.56	0.628	0.486	0.537	0.507	0.559	0.527	0.514	0.924	0.799	1.02	0.876	0.856
LU99A	0.604	0.489	0.575	0.593	0.537	0.482	0.413	0.613	0.564	0.436	0.389	0.276	0.326	0.289	0.336	0.58	0.347	0.426	0.579	0.324
LXF-289	0.802	0.791	0.752	0.706	0.688	0.237	0.239	0.253	0.171	0.207	0.788	0.766	0.755	0.794	0.727	0.773	0.697	0.712	0.735	0.734
NCI-H522						0.919	0.724	1.04	0.812	0.875						0.76	0.738	0.901	0.893	1.03
NCI-H1299	0.928	0.975	0.95	0.925	0.901						0.71	0.669	0.725	0.729	0.684					
NCI-H1395						0.48	0.386	0.426	0.418	0.407	0.66	0.557	0.58	0.59	0.588	0.775	0.552	0.819	0.607	0.681
NCI-H1563	0.89	0.883	0.916	0.827	0.656	0.437	0.466	0.469	0.43	0.489	0.62	0.637	0.638	0.656	0.669					
NCI-H1648																0.562		0.436	0.411	0.644
NCI-H1703	0.69	0.534	0.545	0.598	0.487						0.222	0.245	0.26	0.251	0.266					
NCI-H1792	0.982	0.852	0.972	0.895	1.04	0.755	0.778	0.714	0.73	0.894	0.259	0.302	0.27	0.288	0.348					
NCI-H1793						0.307		0.304		0.419		0.465	0.366	0.3	0.311	0.656	0.403	0.768	0.879	0.935
NCI-H2342						0.317	0.307	0.315	0.309	0.306						0.688	0.725	0.703	0.803	0.787
